The values that follow come from patent US20060204502A1 (priority 2004, published 2006).

Molecules are shown by their SMILES.

For experiment [1], the system named is Human Melanoma A375. Description: MTT growth inhibitory assay, A375. Conditions: A375 cells. Background: Formazan colour is commonly taken as a measure of viable cells.
Protocol: An exemplary assay may comprise the following steps: Cells (1000-1500 cells/well) are seeded in a 96-well micro culture plate in a total volume of 100 μl/well. After overnight incubation in a humidified incubator at 37° C. with 5% CO2-95% air, chemotherapeutic drug solutions diluted with culture medium at various concentrations are added in the amount of 100 μl to each well. The plates are placed in a humidified incubator at 37° C. with 5% CO2-95% air for 7-10 days. The plates are then centrifuged briefly and 100 μl of the growth medium is removed. Cell cultures are incubated with 50 μl of MTT [3-(4,5-dimethylthiazol-2-yl)-2,5-diphenyl-tetrazolium bromide] reagent (1 mg/ml in Dulbecco's phosphate-buffered saline) for 4 hr at 37° C. The resultant purple formazan precipitate is solubilized with 200 μl of 0.04 N HCl in isopropanol. Absorbance is measured at a wavelength of 595 nm and at a reference wavelength of 655 nm using a Bio-Rad Model 3550 Microplate Reader. Preferably, all tests are run in duplicate for each dose level. […] The EZED50 computer program estimates the concentration of agent that inhibits cell growth by 50% as compared to the control cells. This is termed the IC50 and is determined by curve fitting test data using the following four logistic equation. [formula]
If testing concentrations are properly selected (i.e., no or little growth inhibition at low concentrations and complete inhibition at high concentrations), EZED50 program fits the data extremely well and estimates the IC50 value accurately. […] In these instances, the data could be re-analyzed by fixing the Amax value.
In this case, the IC50 could be estimated more accurately if both the Amax and Amin values are fixed. Although it may be feasible to estimate IC50 value by fixing Amax and/or Amax and Amin without repeating the experiment, the best way to determine the IC50 accurately is to decrease or increase the concentrations of the test agent and repeat the test.
Inhibitory assay testing is also used to determine enhanced therapeutic effects from combining A3 receptor antagonists with other tumor inhibiting agents. The inhibitory cell growth assays are run with and without selected concentrations of A3 receptor antagonists. An enhanced therapeutic effect is present when the IC50 of the tumor inhibiting agent is lower with the A3 receptor antagonist.
Quantitatively, the enhancement factor (EF) is calculated by dividing the IC50 value of the tumor inhibiting agent for a tumor cell line by the IC50 value of the agent with A3 receptor antagonist for the same cell line: [formula]
The cells are cultured in a T25 Falcon Tissue Culture flask in a humidified incubator at 37° C. with 5% CO2-95% air. The cells are sub-cultured twice a week.
In experiment [2] the target is T1, rat A2A Adenosine receptor (Rattus norvegicus, UniProt P30543).
T1 construct: from tissue; host or cells: rat striatum (male Wistar rats)
T1 sequence (P30543 whole entry): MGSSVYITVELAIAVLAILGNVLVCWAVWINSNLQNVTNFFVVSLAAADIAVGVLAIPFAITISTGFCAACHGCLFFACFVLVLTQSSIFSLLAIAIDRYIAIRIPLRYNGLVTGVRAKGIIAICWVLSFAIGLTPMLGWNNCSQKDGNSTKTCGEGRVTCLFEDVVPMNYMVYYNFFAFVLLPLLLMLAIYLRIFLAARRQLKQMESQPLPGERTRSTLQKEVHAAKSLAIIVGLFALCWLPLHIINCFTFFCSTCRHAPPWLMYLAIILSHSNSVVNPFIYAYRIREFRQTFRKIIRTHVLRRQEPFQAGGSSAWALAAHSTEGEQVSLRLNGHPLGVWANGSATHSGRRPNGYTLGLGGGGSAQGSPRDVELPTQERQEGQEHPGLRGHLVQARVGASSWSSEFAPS
Kind of experiment: Rat A2A adenosine receptor binding, [3H]-SCH 58261, rat striatal membranes. Conditions: read-out: rA2A (Ki).

In experiment [3] the test system is Human Pancreatic Cancer Panc-1. Description: MTT growth inhibitory assay, Panc-1. The note with it: Panc-1 cells, A3 antagonist at 0.5 μg/ml. It counts as cell-based. On the procedure:
(§1) Interpretation of the EF is dependent upon the concentrations of A3 receptor antagonist tested. For example, when using very low concentrations of A3 receptor antagonist, any EF above 1.0 is synergistic if the A3 receptor antagonist concentration is below the threshold of cell growth inhibition.
(§2) The cells are sub-cultured twice a week.
(§3) Vinblastine sulfate salt was obtained from Sigma Chemical Co., (V1377). Irinotecan was diluted with culture medium. All other agents were dissolved in 100% DMSO at appropriate concentrations. The DMSO stock solutions were diluted 100-fold with growth medium so that the final DMSO concentration was 1%.

For experiment [4], the system named is Human Colon Carcinoma HT29. Description: MTT growth inhibitory assay, HT29. It counts as cell-based. The note with it: HT29 cells. Here is the method: as §1, §2, §3
In experiment [5] the test system is Human Lung Carcinoma SKMES. Kind of experiment: MTT growth inhibitory assay, SKMES. It counts as cell-based. Conditions: SKMES cells, A3 antagonist at 0.5 μg/ml. Here is the method:
as §1, §2, §3

Experiment [6] concerns the target T2, rat A1 Adenosine receptor (Rattus norvegicus, UniProt P25099).
T2 construct: from tissue; host or cells: whole brain (minus brainstem, striatum and cerebellum) of male Wistar rats
T2 sequence (P25099 1-326): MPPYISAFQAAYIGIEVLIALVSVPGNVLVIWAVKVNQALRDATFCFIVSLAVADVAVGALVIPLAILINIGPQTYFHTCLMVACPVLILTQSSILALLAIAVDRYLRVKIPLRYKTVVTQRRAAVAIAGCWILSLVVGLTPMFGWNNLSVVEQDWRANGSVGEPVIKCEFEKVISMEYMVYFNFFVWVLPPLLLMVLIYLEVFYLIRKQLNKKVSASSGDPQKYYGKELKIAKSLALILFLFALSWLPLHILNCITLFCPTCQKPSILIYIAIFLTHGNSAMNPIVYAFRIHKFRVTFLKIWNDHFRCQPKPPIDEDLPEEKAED
Kind of experiment: Rat A1 adenosine receptor binding, [3H]-DPCPX, rat brain membranes. Conditions: read-out: rA1 (Ki).
Protocol: Membrane preparations: Male Wistar rats (200-250 g) can be decapitated and the whole brain (minug brainstem, striatum and cerebellum) dissected on ice. The brain tissues can be disrupted in a Polytron (setting 5) in 20 vols of 50 mM Tris HCl, pH 7.4. […] After 30 min incubation at 37° C., the membranes can be centrifuged and the pellets stored at −70° C. Striatal tissues can be homogenized with a Polytron in 25 vol of 50 mM Tris HCl buffer containing 10 mM MgCl2 pH 7.4. […] After 30 min incubation at 37° C., membranes can be centrifuged and the pellet stored at −70° C. […] Incubation times are typically 120 min at 25° C.
Radioligand binding assays may comprise the following: Binding of [^3H]-SCH 58261 (5-amino-7-(2-phenylethyl)-2-(2-furyl)-pyrazolo[4,3-e]-1,2,4-triazolo[1,5-c]pyrimidine) to rat striatal membranes (100 ug of protein/assay) can be performed according to methods described in Zocchi et al., 1996, J. Pharm. and Exper. […] In competition studies, at least 6-8 different concentrations of examined compounds should be used. […] Incubation time is typically 60 min at 25° C. Bound and free radioactivity can be separated by filtering the assay mixture through Whatman GF/B glass-fiber filters using a Brandel cell harvester (Gaithersburg, Md., USA). […] The filter bound radioactivity can be measured, for example, by liquid scintillation spectrometry. […]

The mark [7] stands for this setting: enhancement of paclitaxel IC50, A3 antagonist at 0.5 μg/ml.

Take `CN(C)c1ccc(NC(=O)Nc2nc3nn(C)cc3c3nc(-c4ccco4)nn23)cc1` [IL-11, N-1-(4-dimethylamino-phenyl)-N′-5-[8-methyl-2-(2-furyl)-pyrazolo[4,3-e]1,2,4-triazolo[1,5-c]pyrimidine]-urea]: the “Enhancement Factor” value in experiment [1] (enhancement of docetaxel IC50, A3 antagonist at 0.5 μg/ml) was found to be 5.3; in experiment [1] (enhancement of docetaxel IC50, A3 antagonist at 5 μg/ml) it was 6.5; in experiment [1] (setting [7]), 3.1; in experiment [1] (enhancement of paclitaxel IC50, A3 antagonist at 5 μg/ml), 9.6; in experiment [3] (enhancement of docetaxel IC50), 1.4; in experiment [3] (enhancement of paclitaxel IC50) it was 1.8. Further, the “Enhancement Factor” value in experiment [4] (enhancement of docetaxel IC50, A3 antagonist at 0.05 μg/ml) amounted to 6.4; in experiment [4] (enhancement of doxorubicin IC50, A3 antagonist at 0.5 μg/ml), 1.2; in experiment [4] (enhancement of irinotecan IC50, A3 antagonist at 0.5 μg/ml), 1.1; in experiment [4] (setting [7]) it was 2.5; in experiment [5] (enhancement of docetaxel IC50), 1.9; in experiment [5] (enhancement of irinotecan HCL IC50), 1.9. For the same compound, the entries for the “Enhancement Factor” value in experiment [5] (enhancement of paclitaxel IC50) and in experiment [5] (enhancement of vinblastine IC50) were 4.2 and 1.6, respectively. For the same compound, the Ki in experiment [2] and in experiment [6] was greater than 10 µM in each case.
